Laboratory results taken from ChEMBL document CHEMBL1142187, “In vitro and in vivo activities of Chios mastic gum extracts and constituents against Helicobacter pylori” (2007).
Converted amounts (≈) assume the structure as drawn.

What follows are compounds tested on Helicobacter pylori (assay: Antibacterial activity against Helicobacter pylori after 48 hrs).
Type: functional
For CC1(C)C=C2[C@H]3CC[C@@H]4[C@@]5(C)CCC(=O)C(C)(C)[C@@H]5CC[C@@]4(C)[C@]3(C)CC[C@@]2(C(=O)O)CC1 [MORONIC ACID], the MBC was 310 µg/mL (≈ 682 µM).
C/C(=C/CC[C@H](C)C1CC[C@]2(C)C3=CCC4C(C)(C)[C@@H](O)CC[C@]4(C)C3CC[C@@]12C)C(=O)O (stereo partly specified) gave an MBC of 220 µg/mL (≈ 482 µM).
Compound CC1(C)CC[C@]2(C(=O)O)CC[C@]3(C)C(=CC[C@@H]4[C@@]5(C)CCC(=O)C(C)(C)[C@@H]5CC[C@]43C)[C@@H]2C1 [OLEANONIC ACID] has an MBC of 292 µg/mL (≈ 642 µM).
C/C(=C/CC[C@H](C)C1CC[C@]2(C)C3=CCC4C(C)(C)C(=O)CC[C@]4(C)C3CC[C@@]12C)C(=O)O (stereo partly specified) showed an MBC of 350 µg/mL (≈ 770 µM).
C/C(=C/CC[C@H](C)C1CC[C@]2(C)C3=C(CC[C@@]12C)[C@@]1(C)CC[C@H](O)C(C)(C)C1CC3)C(=O)O (stereo partly specified) showed an MBC of 202 µg/mL (≈ 442 µM).
With C/C(=C/CC[C@H](C)C1CC[C@]2(C)C3=C(CC[C@@]12C)[C@@]1(C)CCC(=O)C(C)(C)C1CC3)C(=O)O (stereo partly specified) the MBC was 333 µg/mL (≈ 732 µM).
